Test results published in patent US11690854B2, “Methods of treating heavy menstrual bleeding” (priority 2018, dated 2023).

How the values were obtained:
[1] = Pharmacokinetics in specific populations (renal, hepatic impairment); assay type: in vivo, human; conditions: for Elagolix exposures in severe hepatic impairment relative to normal hepatic function: severe hepatic impairment (Child-Pugh C)
Text: The mean exposures are similar for women with moderate to severe or end stage renal disease (including women on dialysis) compared to women with normal renal function.
Elagolix exposures (Cmax and AUC) are similar between women with normal hepatic function and women with mild hepatic impairment. Elagolix exposures in women with moderate and severe hepatic impairment are approximately 3-fold and 7-fold, respectively, of exposures from women with normal hepatic function.

[2] = biological target: efflux transporter P-glycoprotein (P-gp) (Homo sapiens, UniProt P08183); assay: Drug interaction potential: P-gp
Method: Elagolix is an inhibitor of efflux transporter P-glycoprotein (P-gp) at 200 mg BID or higher, such as 300 mg BID or 400 mg QD or 600 mg QD. Co-administration with ELAGOLIX 200 mg BID may increase plasma concentration of drugs that are substrates of P-gp.
Elagolix is a substrate of CYP3A, P-gp, and organic anion transporting polypeptide (OATP)1B1. Clinically meaningful interactions are not expected when ELAGOLIX is co-administered with drugs that inhibit CYP3A or P-gp.

[3] = Mutagenicity studies using in vitro and in vivo test systems
Text: Mutagenicity studies have been performed with elagolix using in vitro and in vivo test systems.

[4] = test system: premenopausal women with endometriosis with associated pain; assay: Phase 3 Studies EM-I and EM-II together, with extension studies; assay type: in vivo, human; conditions: for Depressed Mood, depression, depressive symptoms and or tearfulness, %: placebo 2.3; for Mood altered, mood swings, %: placebo 3.4; for Mean Intensity score (1 = spotting to 4 = heavy) / Mean bleeding/spotting days in prior 28 days: Month 3; for Mean Intensity score (1 = spotting to 4 = heavy): placebo 2.6 to 2.4; for Mean bleeding/spotting days in prior 28 days: placebo 5.4 to 4.6; for Percentage of patients with adverse reaction: Anxiety / Percentage of patients with adverse reaction: Arthralgia / Percentage of patients with adverse reaction: Insomnia: placebo 3; for Percentage of patients with adverse reaction: Nasopharyngitis / Percentage of patients with adverse reaction: Sinusitis: placebo 4; for Percentage of patients with adverse reaction: Upper Respiratory Tract Infection: placebo 5; for Percentage of patients with adverse reaction: Hot Flush: placebo 9; for Percentage of patients with adverse reaction: Headache: placebo 12; for Percentage of patients with adverse reaction: Nausea: placebo 13; for Percentage of patients with adverse reaction: Amenorrhoea: placebo <1; for Mean increase from pretreatment baseline in HDL-C / Mean increase from pretreatment baseline in LDL-C / Mean increase from pretreatment baseline in triglycerides: 6-month treatment; for Patients who discontinued therapy due to adverse reactions: EM-I and EM-II; for Patients with Z-score below the normal lower bound of −2.0: following 12 months of treatment; for Patients with asymptomatic elevations of serum ALT to at least 3-times the upper limit of the reference range: placebo 1/696, 0.1%
Text: Each placebo-controlled study assessed the reduction in endometriosis-associated pain over 6 months of treatment. More than 75 percent of women who completed Study EM-I and EM-II enrolled in the extension studies for an additional 6 month treatment period. Subjects were followed for up to 12 months post-treatment. Women in these studies also provided a daily self-assessment of their endometriosis pain using the Numeric Rating Scale (NRS), on a scale ranging from 0 (no pain) to 10 (worst pain ever). […] The population age range was 18-49 years old. Women who completed six months of treatment and met eligibility criteria continued treatment in two blinded six-month extension studies, for a total treatment duration of up to 12 months. In the placebo-controlled and extension clinical studies, BMD was measured by DXA. Changes observed in BMD at other anatomical sites (femoral neck, total hip) were generally smaller than lumbar spine.

[5] = test system: rats; assay: 2-year carcinogenicity study in rats; assay type: in vivo; conditions: rat
Text: The rat tumors were identified as being species-specific and of negligible relevance to humans. This conclusion is based on a follow-on thyroid and hepatic effects-related investigative study performed to document the possibility that thyroid and liver tumors may be specific to rat and occurred via induction of hepatic drug metabolizing enzymes at the high dose.

[6] = test system: healthy women; assay: 3-menstrual cycle study in healthy women; assay type: in vivo, human
[7] = test system: premenopausal women with HMB and UF; assay: Phase 2b trial, post hoc subgroup with uterine fibroids and non-dominant adenomyosis; assay type: in vivo, human; conditions: 6 months
Method: Patients and Methods: […] Elagolix studied in this clinical trial comprised the sodium salt of Compound A. All subjects were evaluated with ultrasound and a subset volunteered to also be evaluated by MRI. […] Efficacy and safety were evaluated post hoc in a subgroup of women who had confirmed non-dominant adenomyosis (ultrasound/MRI) at baseline. Menstrual blood loss (MBL) was quantified from sanitary products (alkaline hematin). […] Adverse events (AEs) were recorded.

Chain of efflux transporter P-glycoprotein (P-gp) (P08183 whole entry): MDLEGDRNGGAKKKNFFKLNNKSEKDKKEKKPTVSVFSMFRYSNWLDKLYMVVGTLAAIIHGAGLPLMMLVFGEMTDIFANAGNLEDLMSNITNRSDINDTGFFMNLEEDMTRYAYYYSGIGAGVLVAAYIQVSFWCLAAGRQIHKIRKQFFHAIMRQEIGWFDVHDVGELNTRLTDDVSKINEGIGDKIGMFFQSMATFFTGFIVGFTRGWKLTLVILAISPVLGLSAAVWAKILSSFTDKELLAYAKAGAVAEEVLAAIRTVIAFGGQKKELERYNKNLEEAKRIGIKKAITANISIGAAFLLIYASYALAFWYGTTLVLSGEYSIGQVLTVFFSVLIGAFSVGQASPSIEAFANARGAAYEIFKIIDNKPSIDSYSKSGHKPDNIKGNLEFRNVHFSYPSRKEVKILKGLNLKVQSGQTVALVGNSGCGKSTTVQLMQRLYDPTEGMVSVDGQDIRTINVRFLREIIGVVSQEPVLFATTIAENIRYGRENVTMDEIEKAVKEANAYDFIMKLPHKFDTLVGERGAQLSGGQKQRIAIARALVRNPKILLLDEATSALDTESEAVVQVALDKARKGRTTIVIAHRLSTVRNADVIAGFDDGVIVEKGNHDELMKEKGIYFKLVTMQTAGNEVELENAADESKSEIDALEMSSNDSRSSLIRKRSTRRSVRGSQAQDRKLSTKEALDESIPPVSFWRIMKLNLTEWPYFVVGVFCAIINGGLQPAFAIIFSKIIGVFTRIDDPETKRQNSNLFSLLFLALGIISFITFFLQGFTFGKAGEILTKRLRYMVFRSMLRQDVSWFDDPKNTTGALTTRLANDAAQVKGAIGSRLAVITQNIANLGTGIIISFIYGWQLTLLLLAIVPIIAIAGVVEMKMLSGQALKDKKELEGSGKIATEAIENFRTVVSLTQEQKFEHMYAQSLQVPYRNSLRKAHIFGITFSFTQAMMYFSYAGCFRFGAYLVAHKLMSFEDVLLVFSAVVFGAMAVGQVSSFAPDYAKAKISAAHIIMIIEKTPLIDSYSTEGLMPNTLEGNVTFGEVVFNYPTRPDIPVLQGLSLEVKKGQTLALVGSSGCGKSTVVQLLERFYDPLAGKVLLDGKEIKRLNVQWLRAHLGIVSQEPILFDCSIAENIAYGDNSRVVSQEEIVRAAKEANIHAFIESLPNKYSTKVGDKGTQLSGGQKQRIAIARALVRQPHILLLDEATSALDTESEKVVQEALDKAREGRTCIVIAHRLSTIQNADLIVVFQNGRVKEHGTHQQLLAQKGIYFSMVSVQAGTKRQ

SMILES: COc1cccc(-c2c(C)n(Cc3c(F)cccc3C(F)(F)F)c(=O)n(C[C@H](NCCCC(=O)O)c3ccccc3)c2=O)c1F [Elagolix, 4-((R)-2-[5-(2-fluoro-3-methoxy-phenyl)-3-(2-fluoro-6-trifluoromethyl-benzyl)-4-methyl-2,6-dioxo-3,6-dihydro-2H-pyrimidin-1-yl]-1-phenyl-ethylamino)-butyric acid]
- Elagolix exposures in moderate hepatic impairment relative to normal hepatic function ([1]; moderate hepatic impairment (Child-Pugh B)): approximately 3 fold
- Elagolix exposures (Cmax and AUC) in renal impairment ([1]; moderate to severe or end stage renal disease vs normal renal function): not altered by renal impairment
- Elagolix exposures in severe hepatic impairment relative to normal hepatic function [1]: ~7 fold
- Elagolix exposures in severe hepatic impairment relative to normal hepatic function ([1]; listed as elagolix): approximately 7 fold
- Elagolix exposures (Cmax and AUC) in mild hepatic impairment ([1]; vs women with normal hepatic function): similar
- Substrate of P-gp [2]: substrate
- Inhibition of P-gp ([2]; at 200 mg BID or higher, such as 300 mg BID or 400 mg QD or 600 mg QD): inhibitor
- Mutagenic or clastogenic potential [3]: no evidence of a mutagenic or clastogenic potential
- Completed Suicide, % ([4]; 150 mg Once Daily (N = 475)): (0.2) %
- Suicidal ideation, % ([4]; 150 mg Once Daily (N = 475)): (0.2) %
- Depressed Mood, depression, depressive symptoms and or tearfulness, % ([4]; 150 mg Once Daily (N = 475)): (2.7) %
- Mood altered, mood swings, % ([4]; 150 mg Once Daily (N = 475)): (5.7) %
- Mean Intensity score (1 = spotting to 4 = heavy) ([4]; 150 mg Once Daily, baseline 2.6): 2.2
- Mean bleeding/spotting days in prior 28 days ([4]; 150 mg Once Daily, baseline 5.3): 2.8 days
- Discontinuations due to hot flush ([4]; 150 mg QD): 0.8%
- Discontinuations due to nausea ([4]; 150 mg QD): 0.8%
- Numeric Rating Scale (NRS) endometriosis pain scores ([4]; 150 mg QD and 200 mg BID, Month 3 and Month 6): highly statistically (p<0.001) significant reduction in NRS scores compared to placebo
- Percentage of patients with adverse reaction: Anxiety ([4]; 150 mg QD, N = 475): 3%
- Percentage of patients with adverse reaction: Arthralgia ([4]; 150 mg QD, N = 475): 3%
- Percentage of patients with adverse reaction: Insomnia ([4]; 150 mg QD, N = 475): 6%
- Percentage of patients with adverse reaction: Nasopharyngitis ([4]; 150 mg QD, N = 475): 6%
- Percentage of patients with adverse reaction: Sinusitis ([4]; 150 mg QD, N = 475): 5%
- Percentage of patients with adverse reaction: Upper Respiratory Tract Infection ([4]; 150 mg QD, N = 475): 6%
- Percentage of patients with adverse reaction: Hot Flush ([4]; 150 mg QD, N = 475): 23%
- Percentage of patients with adverse reaction: Headache ([4]; 150 mg QD, N = 475): 17%
- Percentage of patients with adverse reaction: Nausea ([4]; 150 mg QD, N = 475): 11%
- Percentage of patients with adverse reaction: Amenorrhoea ([4]; 150 mg QD, N = 475): 4%
- Mean increase from pretreatment baseline in HDL-C ([4]; 150 mg QD): 2.24 mg/dL
- Mean increase from pretreatment baseline in LDL-C ([4]; 150 mg QD): 5.25 mg/dL
- Mean increase from pretreatment baseline in triglycerides ([4]; 150 mg QD): 0.42 mg/dL
- Patients who discontinued therapy due to adverse reactions ([4]; 150 mg QD): 5.5%
- % Subjects with lumbar spine Z-score ≤−1.5 ([4]; 150 mg QD, on treatment Month 6, N 360): 0.8%
- Mean Percent Change from baseline in lumbar spine bone mineral density ([4]; 150 mg QD, on treatment Month 6, N 360, 95% CI −0.79, −0.26): −0.52%
- % Subjects with lumbar spine Z-score ≤−1.5 ([4]; 150 mg QD, on treatment Month 12, N 235): 1.3%
- Mean Percent Change from baseline in lumbar spine bone mineral density ([4]; 150 mg QD, on treatment Month 12, N 235, 95% CI −1.29, −0.45): −0.87%
- Estradiol level (suppression to) ([4]; 150 mg QD, partial suppression): approximately 50 pg/mL
- Patients with Z-score below the normal lower bound of −2.0 ([4]; 150 mg daily dose): no patient
- Patients with asymptomatic elevations of serum ALT to at least 3-times the upper limit of the reference range ([4]; 150 mg once daily, 1/450): 0.2%
- Incidence of amenorrhea (no bleeding or spotting in a 56-day interval) ([4]; 150 mg once daily, first six months of treatment, placebo less than 1%): 6-17%
- Incidence of amenorrhea (no bleeding or spotting in a 56-day interval) ([4]; 150 mg once daily, second 6 months of treatment): 11-15%
- Discontinuations due to hot flush ([4]; 200 mg BID): 2.5%
- Discontinuations due to nausea ([4]; 200 mg BID): 1.5%
- Percentage of patients with adverse reaction: Anxiety ([4]; 200 mg BID, N = 477): 5%
- Percentage of patients with adverse reaction: Arthralgia ([4]; 200 mg BID, N = 477): 5%
- Percentage of patients with adverse reaction: Insomnia ([4]; 200 mg BID, N = 477): 9%
- Percentage of patients with adverse reaction: Nasopharyngitis ([4]; 200 mg BID, N = 477): 6%
- Percentage of patients with adverse reaction: Sinusitis ([4]; 200 mg BID, N = 477): 6%
- Percentage of patients with adverse reaction: Upper Respiratory Tract Infection ([4]; 200 mg BID, N = 477): 4%
- Percentage of patients with adverse reaction: Hot Flush ([4]; 200 mg BID, N = 477): 45%
- Percentage of patients with adverse reaction: Headache ([4]; 200 mg BID, N = 477): 20%
- Percentage of patients with adverse reaction: Nausea ([4]; 200 mg BID, N = 477): 16%
- Percentage of patients with adverse reaction: Amenorrhoea ([4]; 200 mg BID, N = 477): 7%
- Mean increase from pretreatment baseline in HDL-C ([4]; 200 mg BID): 4.16 mg/dL
- Mean increase from pretreatment baseline in LDL-C ([4]; 200 mg BID): 13.10 mg/dL
- Mean increase from pretreatment baseline in triglycerides ([4]; 200 mg BID): 11.08 mg/dL
- Patients who discontinued therapy due to adverse reactions ([4]; 200 mg BID): 9.6%
- Percent change from baseline of averaged daily opioid pills (FIG. A-5) ([4]; 200 mg BID, compared with placebo): significant decrease from baseline in the percent change of averaged daily opioid pills at Months 3 through 6
- Patients with Z-score below the normal lower bound of −2.0 ([4]; 200 mg BID): less than 1%
- Estradiol level (suppression to) ([4]; 200 mg BID, nearly full suppression): approximately 12 pg/mL
- % Subjects with lumbar spine Z-score ≤−1.5 ([4]; 200 mg BID, on treatment Month 6, N 365): 4.1%
- Mean Percent Change from baseline in lumbar spine bone mineral density ([4]; 200 mg BID, on treatment Month 6, N 365, 95% CI −2.81, −2.28): −2.54%
- % Subjects with lumbar spine Z-score ≤−1.5 ([4]; 200 mg BID, on treatment Month 12, N 217): 5.1%
- Mean Percent Change from baseline in lumbar spine bone mineral density ([4]; 200 mg BID, on treatment Month 12, N 217, 95% CI −4.19, −3.32): −3.76%
- Suicidal ideation, % ([4]; 200 mg Twice Daily (N = 477)): (0.2) %
- Depressed Mood, depression, depressive symptoms and or tearfulness, % ([4]; 200 mg Twice Daily (N = 477)): (6.1) %
- Mood altered, mood swings, % ([4]; 200 mg Twice Daily (N = 477)): (5.2) %
- Mean Intensity score (1 = spotting to 4 = heavy) ([4]; 200 mg Twice Daily, baseline 2.5): 2.0
- Mean bleeding/spotting days in prior 28 days ([4]; 200 mg Twice Daily, baseline 5.7): 0.8 days
- Patients with asymptomatic elevations of serum ALT to at least 3-times the upper limit of the reference range ([4]; 200 mg twice daily, 5/443): 1.1%
- Incidence of amenorrhea (no bleeding or spotting in a 56-day interval) ([4]; 200 mg twice daily, first six months of treatment, placebo less than 1%): 13-52%
- Incidence of amenorrhea (no bleeding or spotting in a 56-day interval) ([4]; 200 mg twice daily, second 6 months of treatment): 46-57%
- Percentage of days in which rescue opioid medication was taken ([4]; 150 QD and 200 BID, pooled analysis, compared with placebo): significant reduction in the percentage of days in which rescue opioid medication was taken
- Mean decreases from Baseline in dysmenorrhea scores ([4]; both treatment groups (150 mg QD, 200 mg BID)): statistically significantly greater than placebo beginning at Month 1 and persisted through Month 6
- BMD after stopping treatment ([4]; both treatment groups, lumbar spine, total hip and femoral neck, post-treatment months 6 and 12): progressive recovery of BMD
- Durability of improvement in extension studies EM-III and EM-IV ([4]; patients maintained on their dose): durability of improvement in dysmenorrhea, NMPP and dyspareunia was demonstrated for a total of 12 months
- Margin of safety at the high dose with respect to 200 mg BID in women ([5]; both, in vivo, 2 years): 13 fold
- Tumors in 2-year carcinogenicity study ([5]; high dose, identified as species-specific): increase in thyroid (male and female) and liver (males only) tumors
- Ovulation rate ([6]; 150 mg QD): approximately 50%
- Mean endometrial thickness (transvaginal ultrasound) ([6]; 150 mg QD and 200 mg BID, compared to pretreatment values): dose dependent decrease in the mean endometrial thickness
- Ovulation rate ([6]; 200 mg BID): ~32%
- Proportion of women with ≥50% reduction from baseline in HMB and <80 mL MBL in the last 28 days of treatment ([7]; Cohort 1 (300 mg BID, with or without E2/NETA), placebo 40% (n=10)): 80%
- Proportion of women with ≥50% reduction from baseline in HMB and <80 mL MBL in the last 28 days of treatment ([7]; Cohort 2 (600 mg QD, with or without E2/NETA), placebo 13% (n=16)): 92%
